# Data published in patent US8815878B1, “Spiro hemiaminals for treating viral diseases” (NovaDrug, LLC, priority 2010, dated 2014).
# Tested on: Huh7-1 cells
# Assay: HCV Induced Cytotoxicity Test (Promega CytoTox 96 LDH release)
# Format: cell-based, human
# Conditions: 5 day HCV-infected Huh7-1 cultures
# Procedure: Initially, 6×10^3 Huh7-1 cells are incubated overnight in each well of collagen-coated BioCoat 96-well plates (BD Biosciences, Bedford, Mass.) in 0.2 ml 10% medium composed of Dulbecco's modified Eagle's medium supplemented with 10% fetal bovine serum. Subsequently, at 2 day intervals, the cultures are replenished with fresh 0.2 ml 10% medium. After the cultures become confluent, they continue to be replenished at 2 day intervals with fresh 0.2 ml 10% medium that also includes 1% dimethyl sulfoxide (DMSO). After 20 days of these replenishments, the Huh7-1 cultures are incubated with fresh 1% medium (same as 10% medium except that the serum level is 1%) containing HCV at a multiplicity of infection (MOI) of 0.05 focus forming units (ffu)/cell. The HCV (JFH-1 wt Huh7) stock titer is 1.5×10^5 ffu/ml. The next day (day 1 post-infection) and 2 days later (day 3 post-infection) the media are replenished with fresh 1% medium containing the test compounds dissolved in DMSO. On the 5th day of treatment with the compounds, cell lysates are collected for RNA isolation and Real Time-quantitative Reverse Transcription Polymerase Chain Reaction (RT-qPCR) and culture media are collected for cytotoxicity analysis.
# HCV Induced Cytotoxicity Test. To determine whether the compounds described herein are cytotoxic at the tested doses used, the Promega CytoTox 96 Non-Radioactive Cytotoxicity Assay kit (Promega, Madison, Wis.) is used. This kit measures lactate dehydrogenase (LDH) levels in the culture medium, which is released from cells due to plasma membrane integrity loss or necrosis. For this test, 50 uL samples of culture medium are collected from the same 5 day cultures used to examine the RNA levels shown previously.
# [1] = concentration ranges of 2.5 to 20 μM
Structure (SMILES),toxicity in the assay (LDH levels in the culture medium) (at 25 μM),toxicity in the assay (LDH levels in the culture medium) [1]
O=C1N[C@]2(CC[C@@H]3CN(Cc4cc5c(cc4Cl)OCO5)C[C@@H]32)Nc2ccccc21 [Example 6],limited toxicity,little to no toxicity
O=C1N[C@]2(CC[C@@H]3CN(Cc4cnc(N5CCOCC5)nc4)C[C@@H]32)Nc2ccccc21 [Example 4],,little to no toxicity
Cc1ccc2occ(CN3C[C@H]4CC[C@]5(NC(=O)c6ccccc6N5)[C@H]4C3)c(=O)c2c1 [Example 3],limited toxicity,little to no toxicity
